Measurements reported in patent US20060252733A1, “Betulin, betulin derivatives, betulinic acid and betulinic acid derivatives as novel therapeutics in the treatment of disease of lipid and/or glucose metabolism” (Novelix Pharmaceuticals, Inc., priority 2005, published 2006).
Converted amounts (≈) assume the structure as drawn. “And” between values parts separate entries of the source, which are not always exact repeats. Equal values may be shown once.

Tests used:
[1] = test system: hepatic low density lipoprotein (LDL) receptors; settings: animals; by increasing the expression of hepatic LDL receptors; cited from earlier work
[2] = test system: human lung cancer cell line (A549); assay: Global gene expression analysis (Affymetrix gene chips) after NVX-207 treatment; format: cell-based
Protocol: For global gene expression analysis, total RNA was isolated from sub-confluent cell cultures at 4 and 14 hours after addition of NVX-207. […] For each time point and concentration, respectively, total RNA form 3 equally treated cultures was pooled and used for gene chip analysis. The experiment was repeated once. Four and 14 hours after addition of NVX-207, cells were washed with PBS and lysed directly in the culture dish with RNA-Bee according to the manufacturers instructions. Total RNA was then analyzed by using Affymetrix gene chips according to the manufacturers instructions.

[3] = test system: human lung cancer cell line (A549); assay: NVX-207 IC50/IC80 concentrations in A549 cell cultures; format: cell-based; settings: A549 cells
Apolipoprotein A1 = biological target: T1, Apolipoprotein A1 (Bos taurus, UniProt P15497); assay: Identification of NVX-207 binding proteins (Sulfo-SBED biotin label transfer, 2-D gel, MALDI-TOF-MS); settings: Fetal Calf Serum, NVX-207 coupled to Sulfo-SBED at 5 μg/ml, with or without 20-fold molar excess of unlabeled NVX-207
T1 construct: from tissue; host or cells: fetal calf serum
T1 sequence (P15497 25-265 limits assumed): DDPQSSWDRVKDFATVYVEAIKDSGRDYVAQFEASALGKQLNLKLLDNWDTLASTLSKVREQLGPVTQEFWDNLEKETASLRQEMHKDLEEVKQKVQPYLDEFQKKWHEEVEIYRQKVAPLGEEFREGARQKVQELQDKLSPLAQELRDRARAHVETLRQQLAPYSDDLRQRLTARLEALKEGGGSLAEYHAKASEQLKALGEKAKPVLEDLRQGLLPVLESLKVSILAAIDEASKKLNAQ
Excerpt: The presence of a primary amine group on NVX-207, a unique feature of this derivative compared to other known betulinic acid derived compounds, allows the coupling of other chemical compounds. A commercially available kit from Pierce was used to couple NVX-207 with biotin (Pierce-Sulfo-BED). This procedure allows the identification of NVX-207 binding proteins in protein lysates from any source. This procedure is generically illustrated in FIG. 2. In short, the amine groups of NVX-207 are modified via the Sulfo-NHS moiety of Sulfo-SBED. This derivatized NVX-207 is then incubated in the dark with a lysate or with a purified putative “prey” protein. The bait and prey complex is then captured or trapped by exposing the sample to high-intensity UV light, which activates the phenylazide moiety of Sulfo-SBED. This photoreactive group covalently links to the bound prey protein, capturing the interacting complex. […] The resulting biotin derivatized complex or prey protein can be detected using streptavidin-HRP or an anti-biotin antibody and chemiluminescent detection. […]
NVX-207 (at 5 μg/ml final concentration) coupled to […] with or without a 20-fold molar excess of unlabeled NVX-207 and resolved by 2-D gel electrophoresis. […] Several spots of similar molecular weight (˜24 kDa) and differing IP (in the range of 4.8 to 5.6) were detected by streptavidin-POD after 2-dimensional (2-D) gel electrophoresis.

[4] = test system: human melanoma cell line (518A2); assay: Cell survival (cell counts) after 3 days of treatment; settings: for Survival in % / Survival (%): 3 days, vs untreated controls (=100%)
Protocol: Induction of cell death was evaluated in a human melanoma cell line (518A2) in the presence of simvastatin and NVX-207 alone or in combination. […] After 3 days of treatment, cell numbers were counted. Percentages of survival given are cell numbers compared to untreated controls (=100%). Experiments were repeated three times. Mean values are given.

C=CC[C@@H]1[C@H](O)CC[C@@]2(C)[C@H]1CC[C@@H]1[C@@H]2CC[C@]2(C)[C@@H]([C@H](C)CCCC(C)C)CC[C@@H]12 [LY295427]
plasma cholesterol levels [1]: reduce plasma cholesterol levels

C=C(C)[C@@H]1CC[C@]2(C(=O)OCC(N)(CO)CO)CC[C@]3(C)[C@H](CC[C@@H]4[C@@]5(C)CC[C@H](OC(C)=O)C(C)(C)[C@@H]5CC[C@]43C)[C@@H]12 [NVX-207]
expression of the Table 1 genes with a functional role in lipid and/or glucose metabolism ([2]; 20 listed genes incl. LDL receptor, Insulin induced gene 1, 3-hydroxy-3-methylglutaryl-Coenzyme A reductase): NVX-207-Upregulated Genes with a Functional Role in Lipid | Fold-Induction ([2]; gene: 3-hydroxy-3-methylglutaryl-Coenzyme A synthase 1 (soluble)): 1.63 | Fold-Induction ([2]; gene: 24-dehydro-cholesterol reductase): 1.25 | Fold-Induction ([2]; gene: 216814_at): 0.86 | Fold-Induction ([2]; gene: ALEX3 protein): 1.20 | Fold-Induction ([2]; gene: ATP synthase, H+ transporting, mitochondrial F0 complex, subunit s (factor B)): 0.87 | Fold-Induction ([2]; gene: Acetyl-Coenzyme A acetyltransferase 2 (acetoacetyl Coenzyme A thiolase)): 1.44 | Fold-Induction ([2]; gene: Adenylate cyclase 9): 1.50 | Fold-Induction ([2]; gene: Ankyrin repeat domain 6): 1.48 | Fold-Induction ([2]; gene: Apoptosis inhibitor 5): 1.21 | Fold-Induction ([2]; gene: Choline kinase): 1.16 | Fold-Induction ([2]; gene: Chromosome 22 open reading frame 20): 1.56 | Fold-Induction ([2]; gene: Cyclic nucleotide gated channel alpha 1): 0.79 | Fold-Induction ([2]; gene: D15F37 (pseudogene)): 1.39 | Fold-Induction ([2]; gene: DEAD (Asp-Glu-Ala-Asp) box polypeptide 54): 0.66 | Fold-Induction ([2]; gene: Exportin 6): 0.89 | Fold-Induction ([2]; gene: Farnesyl-diphosphate farnesyltransferase 1): 1.89 | Fold-Induction ([2]; gene: Fatty-acid-Coenzyme A ligase, long-chain 3): 1.31 | Fold-Induction ([2]; gene: Glyoxalase I): 1.12 | Fold-Induction ([2]; gene: H63 breast cancer expressed gene): 0.66 | Fold-Induction ([2]; gene: HMT1 hnRNP methyltransferase-like 1): 0.62 | Fold-Induction ([2]; gene: Haspin): 0.92 | Fold-Induction ([2]; gene: Heterogeneous nuclear ribonucleoprotein A2/B1): 1.30 | Fold-Induction ([2]; gene: Homeo box B2): 1.26 | Fold-Induction ([2]; gene: Homo sapiens cDNA FLJ11590 fis, clone HEMBA1003758.): 1.56 | Fold-Induction ([2]; gene: Homo sapiens cDNA FLJ12075 fis, clone HEMBB1002425.): 1.50 | Fold-Induction ([2]; gene: Homo sapiens cDNA FLJ12932 fis, clone NT2RP2004897.): 1.55 | Fold-Induction ([2]; gene: Homo sapiens cDNA FLJ13272 fis, clone OVARC1001004.): 1.58 | Fold-Induction ([2]; gene: Homo sapiens cDNA FLJ26120 fis, clone SYN00419): 2.26 | Fold-Induction ([2]; gene: Homo sapiens cDNA FLJ33420 fis, clone BRACE2020028.): 1.41 | Fold-Induction ([2]; gene: Homo sapiens cDNA FLJ46153 fis, clone TESTI4001037): 0.81 | Fold-Induction ([2]; gene: Homo sapiens cDNA: FLJ23159 fis, clone LNG09628): 1.44 | Fold-Induction ([2]; gene: Homo sapiens full length insert cDNA clone ZE03A06): 0.70 | Fold-Induction ([2]; gene: Homo sapiens mRNA, cDNA DKFZp586O031 (from clone DKFZp586O031)): 1.13 | Fold-Induction ([2]; gene: Homo sapiens mRNA, cDNA DKFZp686L01105 (from clone DKFZp686L01105)): 2.37 and 2.09 and 1.73 | Fold-Induction ([2]; gene: Homo sapiens mRNA, cDNA DKFZp779K0112 (from clone DKFZp779K0112)): 1.48 | Fold-Induction ([2]; gene: Homo sapiens transcribed sequence with weak similarity to protein ref: NP_060265.1): 1.46 and 1.22 | Fold-Induction ([2]; gene: Homo sapiens, clone IMAGE: 5314747, mRNA): 1.77 | Fold-Induction ([2]; gene: Homo sapiens, clone IMAGE: 6205812, mRNA): 1.85 | Fold-Induction ([2]; gene: Hypothetical protein BC008207): 0.86 | Fold-Induction ([2]; gene: Hypothetical protein DKFZp761A132): 0.70 | Fold-Induction ([2]; gene: Hypothetical protein FLB8034 PRO2158): 1.45 | Fold-Induction ([2]; gene: Hypothetical protein FLJ10997 (ZNF654 zinc finger protein 654 [Homo sapiens])): 1.16 | Fold-Induction ([2]; gene: Hypothetical protein FLJ11577): 1.35 | Fold-Induction ([2]; gene: Hypothetical protein FLJ13611): 1.39 | Fold-Induction ([2]; gene: Hypothetical protein FLJ14639): 1.24 | Fold-Induction ([2]; gene: Hypothetical protein FLJ38499): 1.32 | Fold-Induction ([2]; gene: Hypothetical protein LOC125893): 1.34 | Fold-Induction ([2]; gene: Hypothetical protein LOC126661): 1.49 | Fold-Induction ([2]; gene: Hypothetical protein LOC283680): 1.26 | Fold-Induction ([2]; gene: Hypothetical protein MAC30): 1.46 | Fold-Induction ([2]; gene: Hypothetical protein MGC34695): 1.61 | Fold-Induction ([2]; gene: Hypothetical protein PRO1496): 1.46 | Fold-Induction ([2]; gene: Insulin induced gene 1): 2.56 | Fold-Induction ([2]; gene: Isopentenyl-diphosphate delta isomerase): 1.78 | Fold-Induction ([2]; gene: Jerky homolog-like (mouse)): 1.23 | Fold-Induction ([2]; gene: KIAA0101 gene product): 1.23 | Fold-Induction ([2]; gene: KIAA0335 gene product): 1.38 | Fold-Induction ([2]; gene: KIAA1450 protein): 1.21 | Fold-Induction ([2]; gene: Latrophilin 3): 0.77 | Fold-Induction ([2]; gene: Lipin 1): 1.88 | Fold-Induction ([2]; gene: Low density lipoprotein receptor (familial hypercholesterolemia)): 1.78 | Fold-Induction ([2]; gene: Machado-Joseph disease (spinocerebellar ataxia 39)): 1.45 | Fold-Induction ([2]; gene: Melan-A): 0.60 | Fold-Induction ([2]; gene: Mitochondrial ribosomal protein L30): 1.42 | Fold-Induction ([2]; gene: Mucin 4, tracheobronchial): 0.79 | Fold-Induction ([2]; gene: Mucolipin 3): 1.39 | Fold-Induction ([2]; gene: Natural killer-tumor recognition sequence): 1.45 and 1.28 | Fold-Induction ([2]; gene: Neurolysin (metallopeptidase M3 family)): 1.41 | Fold-Induction ([2]; gene: Nicotinamide nucleotide adenylyltransferase 2): 0.73 | Fold-Induction ([2]; gene: Pantothenate kinase 3): 1.23 | Fold-Induction ([2]; gene: Phorbol-12-myristate-13-acetate-induced protein 1): 1.26 | Fold-Induction ([2]; gene: Phosphodiesterase 4A, cAMP-specific (phosphodiesterase E2 dunce homolog, Drosophila)): 0.78 | Fold-Induction ([2]; gene: Pinin, desmosome associated protein): 1.17 | Fold-Induction ([2]; gene: Protocadherin 11 Y-linked): 1.37 | Fold-Induction ([2]; gene: Putative translation initiation factor): 1.14 | Fold-Induction ([2]; gene: Pyruvate dehydrogenase phosphatase isoenzyme 2): 1.40 | Fold-Induction ([2]; gene: Receptor-interacting factor 1): 1.10 | Fold-Induction ([2]; gene: Ring finger protein 125 (T-cell RING activation protein 1, TRAC-1)): 3.36 | Fold-Induction ([2]; gene: SKI-interacting protein): 1.10 | Fold-Induction ([2]; gene: SOCS box-containing WD protein SWiP-1): 1.20 | Fold-Induction ([2]; gene: SP140 nuclear body protein): 0.78 | Fold-Induction ([2]; gene: SPTF-associated factor 65 gamma): 0.69 | Fold-Induction ([2]; gene: Solute carrier family 2 (facilitated glucose transporter), member 6): 1.76 | Fold-Induction ([2]; gene: Solute carrier family 7, (cationic amino acid transporter, y+ system) member 11): 1.67 | Fold-Induction ([2]; gene: Squalene epoxidase): 1.60 | Fold-Induction ([2]; gene: Stearoyl-CoA desaturase (delta-9-desaturase)): 1.41 | Fold-Induction ([2]; gene: Sterol-C4-methyl oxidase-like): 1.87 | Fold-Induction ([2]; gene: Sterol-C5-desaturase (ERG3 delta-5-desaturase homolog, fungal)-like): 1.37 | Fold-Induction ([2]; gene: Surfactant, pulmonary-associated protein B): 1.43 | Fold-Induction ([2]; gene: Syntaxin 16): 0.86 | Fold-Induction ([2]; gene: Thyroid hormone receptor interactor 11): 1.70 | Fold-Induction ([2]; gene: Tumor necrosis factor (ligand) superfamily, member 9): 1.47 | Fold-Induction ([2]; gene: Ubiquitin specific protease 6 (Tre-2 oncogene)): 1.38 | Fold-Induction ([2]; gene: Ubiquitin specific protease 32): 1.25 | Fold-Induction ([2]; gene: Zinc finger protein 226): 1.46 | Fold-Induction ([2]; gene: Zinc finger protein 430): 1.24 | upregulation of INSIG-1 ([2]; within 4 hours of the addition of NVX-207): up to 3 fold | IC50 [3]: 1.5 mg/L (≈ 2.49 µM) | IC80 [3]: 2.0 mg/L (≈ 3.32 µM) | binding to Apolipoprotein A1 (Apolipoprotein A1): binds to Apolipoprotein A1 | effect on statin-induced cell death ([4]; 518A2 cells, in combination with simvastatin): reduces statin-induced cell death | Survival in % ([4]; NVX-207 0.5 μg/ml): 94% | Survival in % ([4]; NVX-207 1.0 μg/ml): 73% | Survival in % ([4]; NVX-207 2.0 μg/ml): 26% | Survival in % ([4]; NVX-207 4.0 μg/ml): 0%

CCC(C)(C)C(=O)O[C@H]1C[C@@H](C)C=C2C=C[C@H](C)[C@H](CC[C@@H]3C[C@@H](O)CC(=O)O3)[C@H]21 [Simvastatin, reference compound]
Survival (%) ([4]; Simvastatin 0.5 μmol): 96% | Survival (%) ([4]; Simvastatin 1.0 μmol): 40% | Survival (%) ([4]; Simvastatin 2.0 μmol): 12% | Survival (%) ([4]; Simvastatin 4.0 μmol): 3%
